{"source": "the supplement of paper PMC10307832", "experiment_in_all_cases": "relative viability (nuclei count vs DMSO), 5 days (fraction); higher = more cells survive", "key": {"OSI-027 + Linsitinib": {"compound": "COc1cccc2cc(-c3nc([C@H]4CC[C@H](C(=O)O)CC4)n4ncnc(N)c34)[nH]c12 [OSI-027] + C[C@]1(O)C[C@@H](c2nc(-c3ccc4ccc(-c5ccccc5)nc4c3)c3c(N)nccn32)C1 [Linsitinib] (partner 1 µM)", "in_short": "(§1)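 Lung cancer cell lines were seeded in 1536-well plates and dosed by pin tool the next day, with either a single drug or a fixed anchor-drug dose combined with five library-drug doses (not always all listed) spaced in √10 steps. Five days later, one step fixed the cells and stained their nuclei (final 0.05% Triton X-100, 1% formaldehyde, 1 ug/ml Hoechst), and nuclei were counted on 4× images. Relative viability is the nuclei count in treated wells divided by the count in vehicle wells, and each value is the median of duplicate plates.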"}, "OSI-027 + Pemetrexed": {"compound": "COc1cccc2cc(-c3nc([C@H]4CC[C@H](C(=O)O)CC4)n4ncnc(N)c34)[nH]c12 [OSI-027] + Nc1nc2[nH]cc(CCc3ccc(C(=O)N[C@@H](CCC(=O)O)C(=O)O)cc3)c2c(=O)[nH]1 [Pemetrexed] (partner 0.2 µM)", "in_short": "as §1"}, "Alpelisib + Dasatinib": {"compound": "Cc1nc(NC(=O)N2CCC[C@H]2C(N)=O)sc1-c1ccnc(C(C)(C)C(F)(F)F)c1 [Alpelisib] + Cc1nc(Nc2ncc(C(=O)Nc3c(C)cccc3Cl)s2)cc(N2CCN(CCO)CC2)n1 [Dasatinib] (partner 0.075 µM)", "in_short": "as §1"}, "Alpelisib + Foretinib": {"compound": "Cc1nc(NC(=O)N2CCC[C@H]2C(N)=O)sc1-c1ccnc(C(C)(C)C(F)(F)F)c1 [Alpelisib] + COc1cc2c(Oc3ccc(NC(=O)C4(C(=O)Nc5ccc(F)cc5)CC4)cc3F)ccnc2cc1OCCCN1CCOCC1 [Foretinib] (partner 0.25 µM)", "in_short": "as §1"}}}
{"cell line": "UMC-11", "values": [{"measurement": "relative viability", "setting": "OSI-027 + Linsitinib; first compound 0.01 µM", "result": 1}, {"measurement": "relative viability", "setting": "OSI-027 + Linsitinib; first compound 0.03162 µM", "result": 1.04}, {"measurement": "relative viability", "setting": "OSI-027 + Linsitinib; first compound 0.1 µM", "result": 0.944}, {"measurement": "relative viability", "setting": "OSI-027 + Linsitinib; first compound 0.3162 µM", "result": 0.676}, {"measurement": "relative viability", "setting": "OSI-027 + Linsitinib; first compound 1 µM", "result": 0.468}, {"measurement": "relative viability", "setting": "OSI-027 + Pemetrexed; first compound 0.01 µM", "result": 0.994}, {"measurement": "relative viability", "setting": "OSI-027 + Pemetrexed; first compound 0.03162 µM", "result": 0.77}, {"measurement": "relative viability", "setting": "OSI-027 + Pemetrexed; first compound 0.1 µM", "result": 0.658}, {"measurement": "relative viability", "setting": "OSI-027 + Pemetrexed; first compound 0.3162 µM", "result": 0.585}, {"measurement": "relative viability", "setting": "OSI-027 + Pemetrexed; first compound 1 µM", "result": 0.444}, {"measurement": "relative viability", "setting": "Alpelisib + Dasatinib; first compound 0.04 µM", "result": 0.426}, {"measurement": "relative viability", "setting": "Alpelisib + Dasatinib; first compound 0.1265 µM", "result": 0.501}, {"measurement": "relative viability", "setting": "Alpelisib + Dasatinib; first compound 0.4 µM", "result": 0.537}, {"measurement": "relative viability", "setting": "Alpelisib + Dasatinib; first compound 1.265 µM", "result": 0.455}, {"measurement": "relative viability", "setting": "Alpelisib + Dasatinib; first compound 4 µM", "result": 0.473}, {"measurement": "relative viability", "setting": "Alpelisib + Foretinib; first compound 0.04 µM", "result": 1.01}, {"measurement": "relative viability", "setting": "Alpelisib + Foretinib; first compound 0.1265 µM", "result": 1.05}, {"measurement": "relative viability", "setting": "Alpelisib + Foretinib; first compound 0.4 µM", "result": 1.12}, {"measurement": "relative viability", "setting": "Alpelisib + Foretinib; first compound 1.265 µM", "result": 0.839}, {"measurement": "relative viability", "setting": "Alpelisib + Foretinib; first compound 4 µM", "result": 0.875}]}
